This note sets out measurements from patent publication US20250282794A1 (CURADEV PHARMA LTD, priority 2022, published 2025).

The target in the experiment is recombinant full length HPK-1 enzyme (Homo sapiens (Human), UniProt Q92918). The experiment can be described thus: HPK-1 biochemical enzyme assay (ADP-Glo kinase inhibition). The following applies: recombinant full length HPK-1 6.8 nM, 10 μM ATP, 12.5 μM MBP, 30 mins at 25° C. In short, it runs like this: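 Recombinant full-length human HPK-1 (6.8 nM) incubated 30 min at 25° C. with 10 μM ATP and 12.5 μM swine MBP in 40 mM Tris pH 7.4, 20 mM MgCl2, 50 μM DTT, 0.1 mg/mL BSA. ADP measured by ADP-Glo; IC50 from 10 concentrations, normalized to no-enzyme and vehicle controls.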
Chain of recombinant full length HPK-1 enzyme (Q92918 whole entry, species assumed): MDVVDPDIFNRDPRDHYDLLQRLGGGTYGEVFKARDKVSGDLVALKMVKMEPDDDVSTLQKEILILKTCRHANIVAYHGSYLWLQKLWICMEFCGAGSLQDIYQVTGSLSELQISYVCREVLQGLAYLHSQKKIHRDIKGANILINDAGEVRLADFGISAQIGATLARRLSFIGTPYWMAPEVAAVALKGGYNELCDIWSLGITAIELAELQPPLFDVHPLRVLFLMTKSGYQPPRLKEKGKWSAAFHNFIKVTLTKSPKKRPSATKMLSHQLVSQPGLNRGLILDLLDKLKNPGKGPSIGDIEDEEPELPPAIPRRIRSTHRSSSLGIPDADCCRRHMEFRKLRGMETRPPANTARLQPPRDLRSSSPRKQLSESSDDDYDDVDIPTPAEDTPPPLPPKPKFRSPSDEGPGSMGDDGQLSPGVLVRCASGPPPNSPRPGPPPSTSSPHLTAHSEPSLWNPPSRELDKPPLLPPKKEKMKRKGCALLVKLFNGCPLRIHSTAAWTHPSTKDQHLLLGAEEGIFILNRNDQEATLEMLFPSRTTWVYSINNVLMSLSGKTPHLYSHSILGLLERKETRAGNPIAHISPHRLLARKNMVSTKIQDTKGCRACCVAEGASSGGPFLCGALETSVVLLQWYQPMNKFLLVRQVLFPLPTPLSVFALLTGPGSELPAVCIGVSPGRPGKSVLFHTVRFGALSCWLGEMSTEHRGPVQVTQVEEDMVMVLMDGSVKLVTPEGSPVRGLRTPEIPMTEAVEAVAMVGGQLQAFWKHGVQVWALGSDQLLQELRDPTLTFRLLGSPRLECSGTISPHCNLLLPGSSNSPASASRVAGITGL
A general note: ADP-Glo first removes unused ATP, then detects ADP through luciferase.
One may read the IC50 as the concentration needed to halve the response being measured. Consider `CCC(=O)N1CCN(c2ccc(NC(=O)c3c(Nc4cnc5c(c4C)NCC(C)O5)cc[nH]c3=O)cc2Cl)CC1` (stereo not drawn) [Example 313, N-(3-chloro-4-(4-propionylpiperazin-1-yl)phenyl)-4-((3,8-dimethyl-2,3-dihydro-1H-pyrido[2,3-b][1,4]oxazin-7-yl)amino)-2-oxo-1,2-dihydropyridine-3-carboxamide], for which the half-maximal inhibitory concentration (IC50) fell in the range of 0.01 to 0.1 µM. Regarding `Cc1c(Nc2cc[nH]c(=O)c2C(=O)Nc2ccc(N3CCN(C(=O)C(C)C)CC3)cc2)cnc2c1NCCO2` [Example 315, N-(4-(4-Isobutyrylpiperazin-1-yl)phenyl)-4-((8-methyl-2,3-dihydro-1H-pyrido[2,3-b][1,4]oxazin-7-yl)amino)-2-oxo-1,2-dihydropyridine-3-carboxamide], the 50% inhibitory concentration (IC50) is at most 0.01 µM.

For the molecule `Cc1c(Nc2cc[nH]c(=O)c2C(=O)Nc2ccc(N3CCN(C(=O)c4ccnn4C)CC3)cc2)cnc2c1NCCO2` [Example 316, N-(4-(4-(1-methyl-1H-pyrazole-5-carbonyl)piperazin-1-yl)phenyl)-4-((8-methyl-2,3-dihydro-1H-pyrido[2,3-b][1,4]oxazin-7-yl)amino)-2-oxo-1,2-dihydropyridine-3-carboxamide], the half-maximal inhibitory concentration (IC50) is 0.01 to 0.1 µM. For `Cc1c(Nc2cc[nH]c(=O)c2C(=O)Nc2ccc(N3CCN(C(=O)N4CC(C)(C)C4)CC3)cc2)cnc2c1NCCO2` [Example 317, N-(4-(4-(3,3-dimethylazetidine-1-carbonyl)piperazin-1-yl)phenyl)-4-((8-methyl-2,3-dihydro-1H-pyrido[2,3-b][1,4]oxazin-7-yl)amino)-2-oxo-1,2-dihydropyridine-3-carboxamide] the value was at most 0.01 µM; for `Cc1c(Nc2cc[nH]c(=O)c2C(=O)Nc2ccc(N3CCN(C(=O)C4CC(F)(F)C4)CC3)cc2)cnc2c1NCCO2` [Example 318, N-(4-(4-(3,3-difluorocyclobutane-1-carbonyl)piperazin-1-yl)phenyl)-4-((8-methyl-2,3-dihydro-1H-pyrido[2,3-b][1,4]oxazin-7-yl)amino)-2-oxo-1,2-dihydropyridine-3-carboxamide], at most 0.01 µM. For `Cc1c(Nc2cc[nH]c(=O)c2C(=O)Nc2ccc(N3CCN(C(=O)N4CC(F)(F)C4)CC3)cc2)cnc2c1NCCO2` [Example 319, N-(4-(4-(3,3-difluoroazetidine-1-carbonyl)piperazin-1-yl)phenyl)-4-((8-methyl-2,3-dihydro-1H-pyrido[2,3-b][1,4]oxazin-7-yl)amino)-2-oxo-1,2-dihydropyridine-3-carboxamide] the value was at most 0.01 µM. In the case of `Cc1c(Nc2cc[nH]c(=O)c2C(=O)Nc2ccc(N3CCN(C(=O)N4CC5(CCC5)C4)CC3)cc2)cnc2c1NCCO2` [Example 320, N-(4-(4-(2-azaspiro[3.3]heptane-2-carbonyl)piperazin-1-yl)phenyl)-4-((8-methyl-2,3-dihydro-1H-pyrido[2,3-b][1,4]oxazin-7-yl)amino)-2-oxo-1,2-dihydropyridine-3-carboxamide] it was at most 0.01 µM.

Regarding `Cc1c(Nc2cc[nH]c(=O)c2C(=O)Nc2ccc(N3CCN(C(=O)N4CC5(COC5)C4)CC3)cc2)cnc2c1NCCO2` [Example 321, N-(4-(4-(2-oxa-6-azaspiro[3.3]heptane-6-carbonyl)piperazin-1-yl)phenyl)-4-((8-methyl-2,3-dihydro-1H-pyrido[2,3-b][1,4]oxazin-7-yl)amino)-2-oxo-1,2-dihydropyridine-3-carboxamide], the half-inhibitory concentration (IC50) lay within 0.01 to 0.1 µM. On to `Cc1c(Nc2cc[nH]c(=O)c2C(=O)Nc2ccc(N3CCN(C(=O)c4ccn(C)n4)CC3)cc2)cnc2c1NCCO2` [Example 322, N-(4-(4-(1-methyl-1H-pyrazole-3-carbonyl)piperazin-1-yl)phenyl)-4-((8-methyl-2,3-dihydro-1H-pyrido[2,3-b][1,4]oxazin-7-yl)amino)-2-oxo-1,2-dihydropyridine-3-carboxamide], for which the IC50 fell in the range of 0.01 to 0.1 µM. For the molecule `Cc1c(Nc2cc[nH]c(=O)c2C(=O)Nc2ccc(N3CCN4CCOC[C@H]4C3)cc2)cnc2c1NCCO2` [Example 323, (R)-N-(4-(hexahydropyrazino[2,1-c][1,4]oxazin-8(1H)-yl)phenyl)-4-((8-methyl-2,3-dihydro-1H-pyrido[2,3-b][1,4]oxazin-7-yl)amino)-2-oxo-1,2-dihydropyridine-3-carboxamide], the concentration for half-maximal inhibition (IC50) is 0.01 to 0.1 µM. For `Cc1c(Nc2cc[nH]c(=O)c2C(=O)Nc2ccc(N3CCN(C(=O)N4CCCC4)CC3)cc2)cnc2c1NCCO2` [Example 324, 4-((8-methyl-2,3-dihydro-1H-pyrido[2,3-b][1,4]oxazin-7-yl)amino)-2-oxo-N-(4-(4-(pyrrolidine-1-carbonyl)piperazin-1-yl)phenyl)-1,2-dihydropyridine-3-carboxamide] the value was at most 0.01 µM; for `Cc1c(Nc2cc[nH]c(=O)c2C(=O)Nc2ccc(N3CCN(C(=O)N4CCC4)CC3)cc2)cnc2c1NCCO2` [Example 325, N-(4-(4-(azetidine-1-carbonyl)piperazin-1-yl)phenyl)-4-((8-methyl-2,3-dihydro-1H-pyrido[2,3-b][1,4]oxazin-7-yl)amino)-2-oxo-1,2-dihydropyridine-3-carboxamide], at most 0.01 µM. As for `Cc1c(Nc2cc[nH]c(=O)c2C(=O)Nc2ccc(N3CCC(N4CCN(C(C)C)CC4)CC3)c(F)c2)cnc2c1NCC(C)O2` (stereo not drawn) [Example 326, 4-((3,8-dimethyl-2,3-dihydro-1H-pyrido[2,3-b][1,4]oxazin-7-yl)amino)-N-(3-fluoro-4-(4-(4-isopropylpiperazin-1-yl)piperidin-1-yl)phenyl)-2-oxo-1,2-dihydropyridine-3-carboxamide], the IC50 is at most 0.01 µM. In the case of `Cc1c(Nc2cc[nH]c(=O)c2C(=O)Nc2ccc(N3CCN4CCOC[C@@H]4C3)cc2)cnc2c1NCCO2` [Example 327, (S)-N-(4-(hexahydropyrazino[2,1-c][1,4]oxazin-8(1H)-yl)phenyl)-4-((8-methyl-2,3-dihydro-1H-pyrido[2,3-b][1,4]oxazin-7-yl)amino)-2-oxo-1,2-dihydropyridine-3-carboxamide], the IC50 was at most 0.01 µM. For `Cc1c(Nc2cc[nH]c(=O)c2C(=O)Nc2ccc(N3CCN4CCC[C@H]4C3)cc2)cnc2c1NCCO2` [Example 328, (S)-N-(4-(hexahydropyrrolo[1,2-a]pyrazin-2(1H)-yl)phenyl)-4-((8-methyl-2,3-dihydro-1H-pyrido[2,3-b][1,4]oxazin-7-yl)amino)-2-oxo-1,2-dihydropyridine-3-carboxamide] the value was at most 0.01 µM; for `Cc1c(Nc2cc[nH]c(=O)c2C(=O)Nc2ccc(N3CCN4CCC[C@@H]4C3)cc2)cnc2c1NCCO2` [Example 329, (R)-N-(4-(hexahydropyrrolo[1,2-a]pyrazin-2(1H)-yl)phenyl)-4-((8-methyl-2,3-dihydro-1H-pyrido[2,3-b][1,4]oxazin-7-yl)amino)-2-oxo-1,2-dihydropyridine-3-carboxamide], at most 0.01 µM; for `Cc1c(Nc2cc[nH]c(=O)c2C(=O)Nc2ccc(C3CCCCC3)cc2)cnc2c1NCCO2` [Example 330, N-(4-cyclohexylphenyl)-4-((8-methyl-2,3-dihydro-1H-pyrido[2,3-b][1,4]oxazin-7-yl)amino)-2-oxo-1,2-dihydropyridine-3-carboxamide], 0.1 to 1 µM.

Regarding `Cc1c(Nc2cc[nH]c(=O)c2C(=O)Nc2ccc(N3CCN(C(=O)C4CC4)CC3)cc2)cnc2c1NCCO2` [Example 332, N-(4-(4-(cyclopropanecarbonyl)piperazin-1-yl)phenyl)-4-((8-methyl-2,3-dihydro-1H-pyrido[2,3-b][1,4]oxazin-7-yl)amino)-2-oxo-1,2-dihydropyridine-3-carboxamide], the IC50 was at most 0.01 µM. `CCC(C)C(=O)N1CCN(c2ccc(NC(=O)c3c(Nc4cnc5c(c4C)NCCO5)cc[nH]c3=O)cc2)CC1` (stereo not drawn) [Example 333, 4-((8-methyl-2,3-dihydro-1H-pyrido[2,3-b][1,4]oxazin-7-yl)amino)-N-(4-(4-(2-methylbutanoyl)piperazin-1-yl)phenyl)-2-oxo-1,2-dihydropyridine-3-carboxamide]: the IC50 is at most 0.01 µM.

With `Cc1c(Nc2cc[nH]c(=O)c2C(=O)Nc2ccc(N3CCN(C(=O)C4C(C)(C)C4(C)C)CC3)cc2)cnc2c1NCCO2` [Example 334, 4-((8-methyl-2,3-dihydro-1H-pyrido[2,3-b][1,4]oxazin-7-yl)amino)-2-oxo-N-(4-(4-(2,2,3,3-tetramethylcyclopropane-1-carbonyl)piperazin-1-yl)phenyl)-1,2-dihydropyridine-3-carboxamide], the IC50 was at most 0.01 µM. For `Cc1c(Nc2cc[nH]c(=O)c2C(=O)Nc2ccc(N3CCN(C(=O)C(C)C)CC3)cc2)cnc2c1NCC(C)O2` (stereo not drawn) [Example 335, 4-((3,8-dimethyl-2,3-dihydro-1H-pyrido[2,3-b][1,4]oxazin-7-yl)amino)-N-(4-(4-isobutyrylpiperazin-1-yl)phenyl)-2-oxo-1,2-dihydropyridine-3-carboxamide] the value was 0.01 to 0.1 µM.

As to `Cc1c(Nc2cc[nH]c(=O)c2C(=O)Nc2ccc(N3CCN(c4ccn(C)n4)CC3)cc2)cnc2c1NCCO2` [Example 336, N-(4-(4-(1-methyl-1H-pyrazol-3-yl)piperazin-1-yl)phenyl)-4-((8-methyl-2,3-dihydro-1H-pyrido[2,3-b][1,4]oxazin-7-yl)amino)-2-oxo-1,2-dihydropyridine-3-carboxamide], the half-inhibitory concentration (IC50) is at most 0.01 µM. For the molecule `Cc1ncccc1N1CCN(c2ccc(NC(=O)c3c(Nc4cnc5c(c4C)NCCO5)cc[nH]c3=O)cc2)CC1` [Example 337, 4-((8-methyl-2,3-dihydro-1H-pyrido[2,3-b][1,4]oxazin-7-yl)amino)-N-(4-(4-(2-methylpyridin-3-yl)piperazin-1-yl)phenyl)-2-oxo-1,2-dihydropyridine-3-carboxamide], the IC50 is at most 0.01 µM. For `Cc1c(Nc2cc[nH]c(=O)c2C(=O)Nc2ccc(N3CCN(c4cncnc4)CC3)cc2)cnc2c1NCCO2` [Example 338, 4-((8-methyl-2,3-dihydro-1H-pyrido[2,3-b][1,4]oxazin-7-yl)amino)-2-oxo-N-(4-(4-(pyrimidin-5-yl)piperazin-1-yl)phenyl)-1,2-dihydropyridine-3-carboxamide] the value was 0.01 to 0.1 µM.
